In BigSolDB 2.1:

Compound: CN/C(=C\[N+](=O)[O-])NCCSCc1csc(CN(C)C)n1
- solubility (mole fraction) (in acetone, 273.15 K): 0.00283
- solubility (mole fraction) (in acetone, 278.15 K): 0.0034
- solubility (mole fraction) (in acetone, 283.15 K): 0.00432
- solubility (mole fraction) (in acetone, 288.15 K): 0.00552
- solubility (mole fraction) (in acetone, 293.15 K): 0.00701
- solubility (mole fraction) (in acetone, 298.15 K): 0.00806
- solubility (mole fraction) (in acetone, 303.15 K): 0.0103
- solubility (mole fraction) (in acetone, 308.15 K): 0.0128
- solubility (mole fraction) (in acetone, 313.15 K): 0.0164
- solubility (mole fraction) (in acetone, 318.15 K): 0.0235
- solubility (mole fraction) (in acetone, 323.15 K): 0.0385
- solubility (mole fraction) (in ethanol, 273.15 K): 0.00287
- solubility (mole fraction) (in ethanol, 278.15 K): 0.00381
- solubility (mole fraction) (in ethanol, 283.15 K): 0.00487
- solubility (mole fraction) (in ethanol, 288.15 K): 0.00653
- solubility (mole fraction) (in ethanol, 293.15 K): 0.00867
- solubility (mole fraction) (in ethanol, 298.15 K): 0.0133
- solubility (mole fraction) (in ethanol, 303.15 K): 0.0167
- solubility (mole fraction) (in ethanol, 308.15 K): 0.0212
- solubility (mole fraction) (in ethanol, 313.15 K): 0.0301
- solubility (mole fraction) (in ethanol, 318.15 K): 0.0376
- solubility (mole fraction) (in ethanol, 323.15 K): 0.062
- solubility (mole fraction) (in ethanol, 328.15 K): 0.0955
- solubility (mole fraction) (in ethanol, 333.15 K): 0.179
- solubility (mole fraction) (in ethyl acetate, 273.15 K): 0.00029
- solubility (mole fraction) (in ethyl acetate, 278.15 K): 0.00033
- solubility (mole fraction) (in ethyl acetate, 283.15 K): 0.00043
- solubility (mole fraction) (in ethyl acetate, 288.15 K): 0.00058
- solubility (mole fraction) (in ethyl acetate, 293.15 K): 0.00063
- solubility (mole fraction) (in ethyl acetate, 298.15 K): 0.00082
- solubility (mole fraction) (in ethyl acetate, 303.15 K): 0.00093
- solubility (mole fraction) (in ethyl acetate, 308.15 K): 0.00148
- solubility (mole fraction) (in ethyl acetate, 313.15 K): 0.00187
- solubility (mole fraction) (in ethyl acetate, 318.15 K): 0.00219
- solubility (mole fraction) (in ethyl acetate, 323.15 K): 0.00269
- solubility (mole fraction) (in ethyl acetate, 328.15 K): 0.00343
- solubility (mole fraction) (in ethyl acetate, 333.15 K): 0.0042
- solubility (mole fraction) (in ethyl acetate, 338.15 K): 0.0055
- solubility (mole fraction) (in methanol, 273.15 K): 0.0167
- solubility (mole fraction) (in methanol, 278.15 K): 0.0211
- solubility (mole fraction) (in methanol, 283.15 K): 0.027
- solubility (mole fraction) (in methanol, 288.15 K): 0.0347
- solubility (mole fraction) (in methanol, 293.15 K): 0.0447
- solubility (mole fraction) (in methanol, 298.15 K): 0.0589
- solubility (mole fraction) (in methanol, 303.15 K): 0.0765
- solubility (mole fraction) (in methanol, 308.15 K): 0.103
- solubility (mole fraction) (in methanol, 313.15 K): 0.147
- solubility (mole fraction) (in methanol, 318.15 K): 0.203
- solubility (mole fraction) (in water, 273.15 K): 0.0225
- solubility (mole fraction) (in water, 278.15 K): 0.0232
- solubility (mole fraction) (in water, 283.15 K): 0.0238
- solubility (mole fraction) (in water, 288.15 K): 0.0247
- solubility (mole fraction) (in water, 293.15 K): 0.0257
- solubility (mole fraction) (in water, 298.15 K): 0.0297
- solubility (mole fraction) (in water, 303.15 K): 0.0325
- solubility (mole fraction) (in water, 308.15 K): 0.036
- solubility (mole fraction) (in water, 313.15 K): 0.0402
- solubility (mole fraction) (in water, 318.15 K): 0.0463
- solubility (mole fraction) (in water, 323.15 K): 0.0535
- solubility (mole fraction) (in water, 328.15 K): 0.0653
- solubility (mole fraction) (in water, 333.15 K): 0.0809
- solubility (mole fraction) (in water, 338.15 K): 0.109
- solubility (mole fraction) (in water, 343.15 K): 0.164
